Literature values in patent US20020010202A1, “Combinations of prostaglandins and brimonidine or derivatives thereof” (Allergan Sales, Inc., priority 1994, published 2002).

Tests used:
[1] = in vivo
[2] = pressure rise with microkeratomes in LASIK
[3] = adjunctive to timolol in patients; statistically significant

Row | SMILES | neuroprotection in the eye [1] | adverse effects (in vivo) | duration of IOP decrease (in vivo) | mean decrease in IOP (topically active carbonic anhydrase inhibitor) | nerve fiber thinning [2] | IOP-lowering effect [3]
1 | CC(C)(C)NC[C@H](O)COc1nsnc1N1CCOCC1 [timolol, (S)-1-tert-Butylamino-3-[(4-morpholino-1,2,5-thiadiazol-3-yl)oxy]-2-propanol] | did not exhibit neuroprotection |  |  |  |  | 
2 | CCN[C@H]1C[C@H](C)S(=O)(=O)c2sc(S(N)(=O)=O)cc21 [MK 507] |  | blanching of the conjunctiva, minimal mydriasis and eyelid retraction | ≤ 12 h | 25% |  | 
3 | Brc1c(NC2=NCCN2)ccc2nccnc12 [Brimonidine] | exhibited neuroprotective effects in the eye |  |  |  | lessened or totally prevented | about 20%
